Data on 40 compounds can be found in US20230202989A1, “COMPOUNDS” (JANSSEN PHARMACEUTICA NV, priority 2020, published 2023).

Some results are limits rather than exact numbers.

One experiment has as its system TNF. Put plainly: PBMC assay: TNF cytokine levels after LPS stimulation (MSD). Format: cell-based. The note with it: Homo sapiens, PBMC, 6 h, human PBMCs, 100 ng/ml LPS for 6 hrs. Put shortly: (§1)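 Cryopreserved human PBMCs (7.5×10^4/well) in RPMI/10% FBS were preincubated with serially diluted compound for 30 min at 37 °C, then stimulated with 100 ng/ml LPS for 6 h. Supernatant IL-1β and TNF measured by MSD. IC50 derived for IL-1β, EC50 for TNF.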

In a further experiment the test system is IL-1β. The experiment is described as follows: PBMC assay: inhibition of IL-1β release after LPS stimulation (MSD). Format: cell-based. The note with it: Homo sapiens, PBMC, 6 h, human PBMCs, 100 ng/ml LPS for 6 hrs, MSD, 96 well plates; read-out: IL1β IC50. Put shortly: as §1

In the case of `C[C@]1(O)C[C@@H](NC(=O)Cn2nc(C3(F)CC3)c3cc(C(F)(F)F)ccc3c2=O)C1` [Final Cpd X134], the EC50 in the experiment with TNF is above 20 µM. The IC50 in the experiment on IL-1β is 3.41 µM.
`COC(c1nn(CC(=O)Nc2ccc3nncn3c2)c(=O)c2ccc(C(F)(F)F)cc12)C(F)(F)F` (centres unmarked) [Final Cpd X135]: the EC50 in the experiment with TNF is above 20 µM. For the same compound, in the experiment with IL-1β, the IC50 was 3.44 µM.
The corresponding values for `CC(C)(F)c1nn(CC(=O)Nc2ccc3nncn3c2)c(=O)c2ccc(C(F)(F)F)cc12` [Final Cpd X136] are above 20 µM and 3.77 µM.
In turn, `CC(C)c1nn(CC(=O)Nc2ccc3nn(C)cc3c2)c(=O)c2ccc(C(F)(F)F)cc12` [Final Cpd X137] had an EC50 in the experiment with TNF above 20 µM. The IC50 in the experiment with IL-1β stood at 3.86 µM.
In the experiment with TNF, `CC(C)c1nn(CC(=O)Nc2ccc3c(c2)ncn3C)c(=O)c2ccc(C(F)(F)F)cc12` [Final Cpd X141] returned an EC50 above 20 µM. For the same compound, the 50% inhibitory concentration (IC50) in the experiment with IL-1β stood at 4.71 µM.
The corresponding values for `O=C(Cn1nc(C2(F)CC2)c2cc(C(F)(F)F)ccc2c1=O)Nc1ccc2nncn2c1` [Final Cpd X142] are above 20 µM and 4.74 µM.
In turn, `CCN1CCC(NC(=O)Cn2nc(C(C)C)c3cc(C(F)(F)F)ccc3c2=O)CC1` [Final Cpd X143] gave an EC50 with TNF above 20 µM. Besides, the IC50 in the experiment with IL-1β was 4.93 µM.
In the same order, the values of `CC(C)Cc1nn(CC(=O)Nc2ccc3nncn3c2)c(=O)c2ccc(C(F)(F)F)cc12` [Final Cpd X144] are above 20 µM and 4.95 µM.
The corresponding values for `CC(C)(F)c1nn(CC(=O)N[C@H]2C[C@@](C)(O)C2)c(=O)c2ccc(C(F)(F)F)cc12` [Final Cpd X145] are above 20 µM and 4.99 µM.
For `CC(C)c1nn(CC(=O)Nc2ccc3cnn(C(F)F)c3c2)c(=O)c2ccc(C(F)(F)F)cc12` [Final Cpd X146], in the experiment with TNF, the 50% effective concentration (EC50) was above 20 µM. Besides, in the experiment with IL-1β, the IC50 was determined as 5.72 µM.
In the experiment on TNF, `CC(C)c1nn(CC(=O)Nc2cnn(C)c(=O)c2)c(=O)c2ccc(C(F)(F)F)cc12` [Final Cpd X151] showed an EC50 above 20 µM. Besides, the concentration for half-maximal inhibition (IC50) with IL-1β is 7.45 µM.
In the same order, the values of `CCN1CCCC(NC(=O)Cn2nc(C(C)C)c3cc(C(F)(F)F)ccc3c2=O)C1=O` (centres unmarked) [Final Cpd X152] are above 20 µM and 7.5 µM.
For `CC(C)c1nn(CC(=O)Nc2ccc(I)nn2)c(=O)c2ccc(C(F)(F)F)cc12` [Final Cpd X154], in the experiment with TNF, the EC50 was above 20 µM. Moreover, the IC50 in the experiment on IL-1β turned out to be 3.09 µM.
In the same order, the values of `CC(C)(F)c1nn(CC(=O)Nc2ccnnc2)c(=O)c2ccc(C(F)(F)F)cc12` [Final Cpd X155] are 17.6 µM and 7.91 µM.
In the same order, the values of `CC(C)c1nn(CC(=O)NC2CC(F)(F)C2)c(=O)c2ccc(C(F)(F)F)cc12` [Final Cpd X156] are above 20 µM and 8.77 µM.
In the same order, the values of `COC1(c2nn(CC(=O)Nc3ccc4nncn4c3)c(=O)c3ccc(C(F)(F)F)cc23)CC1` [Final Cpd X158] are above 20 µM and 9.99 µM.
In the case of `CC(C)c1nn(CC(=O)Nc2ccc3c(ncn3C)n2)c(=O)c2ccc(C(F)(F)F)cc12` [Final Cpd X160], in the experiment on TNF, the EC50 is above 20 µM. In addition, the half-inhibitory concentration (IC50) in the experiment with IL-1β turned out to be 13.4 µM.
For the compound `CC(C)c1nn(CC(=O)Nc2ccc(C(F)(F)F)nn2)c(=O)c2ccc(C(F)(F)F)cc12` [Final Cpd X161], in the experiment with TNF, the EC50 is above 20 µM. The IC50 with IL-1β was determined as 14.2 µM.
In the same order, the values of `CC(C)c1nn(CC(=O)Nc2cc(C#N)c3ncnn3c2)c(=O)c2ccc(C(F)(F)F)cc12` [Final Cpd X162] are above 20 µM and 15 µM.
The corresponding values for `Cc1nnc2cc(NC(=O)Cn3nc(C(C)C)c4cc(C(F)(F)F)ccc4c3=O)ccn12` [Final Cpd X165] are above 20 µM and 16.1 µM.
The corresponding values for `Cc1cc2nccn2cc1NC(=O)Cn1nc(C(C)C)c2cc(C(F)(F)F)ccc2c1=O` [Final Cpd X167] are above 20 µM and 17.8 µM.
Consider `CC(C)CN1CCc2cc(NC(=O)Cn3nc(C(C)C)c4cc(C(F)(F)F)ccc4c3=O)ccc21` [Final Cpd X168], for which, in the experiment with TNF, the EC50 is above 20 µM. For the same compound, the IC50 in the experiment with IL-1β is above 20 µM.
`CC(C)c1nn(CC(=O)Nc2ccc3nn(C)nc3c2)c(=O)c2ccc(C(F)(F)F)cc12` [Final Cpd X169] gave an EC50 with TNF above 20 µM. In the experiment with IL-1β, the IC50 is above 20 µM.
For `CC(C)c1nn(CC(=O)Nc2ccc3nncn3c2)c(=O)c2ccc(C(F)(F)F)c(C#N)c12` [Final Cpd X170], the EC50 in the experiment with TNF is above 20 µM. Further, the IC50 in the experiment with IL-1β was above 20 µM.
In turn, `CCN1CCc2cc(NC(=O)Cn3nc(C(C)C)c4cc(C(F)(F)F)ccc4c3=O)ccc21` [Final Cpd X171] showed an EC50 in the experiment on TNF above 20 µM. In addition, the IC50 in the experiment with IL-1β is above 20 µM.
Regarding `CC(C)c1nn(CC(=O)Nc2ccc3c(c2)CCN3C(C)C)c(=O)c2ccc(C(F)(F)F)cc12` [Final Cpd X173], the EC50 in the experiment on TNF is above 20 µM. Also, in the experiment on IL-1β, the IC50 is above 20 µM.
In the experiment on TNF, `CC(C)c1nn(CC(=O)Nc2ccc(C(F)F)nn2)c(=O)c2ccc(C(F)(F)F)cc12` [Final Cpd X176] had an EC50 above 20 µM. Also, the IC50 with IL-1β is above 20 µM.
As to `CO[C@H]1CC[C@H](NC(=O)Cn2nc(C(C)C)c3cc(C(F)(F)F)ccc3c2=O)CC1` [Final Cpd X177], the EC50 in the experiment on TNF is above 20 µM. In addition, the half-inhibitory concentration (IC50) in the experiment with IL-1β was above 20 µM.
Consider `CC(C)c1nn(CC(=O)Nc2cc(C(F)(F)F)ncn2)c(=O)c2ccc(C(F)(F)F)cc12` [Final Cpd X178], for which the EC50 in the experiment with TNF is above 20 µM. For the same compound, the IC50 with IL-1β is above 20 µM.
In turn, `CC(C)c1nn(CC(=O)Nc2ccc(C3CC3)nn2)c(=O)c2ccc(C(F)(F)F)cc12` [Final Cpd X179] registered an EC50 in the experiment with TNF above 20 µM. Moreover, the IC50 in the experiment with IL-1β is above 20 µM.
`CC(C)(F)c1nn(CC(=O)Nc2ccncn2)c(=O)c2ccc(C(F)(F)F)cc12` [Final Cpd X180] displayed a 50% effective concentration (EC50) in the experiment on TNF above 20 µM. The half-maximal inhibitory concentration (IC50) with IL-1β is above 20 µM.
Compound `CC(C)c1nn(CC(=O)Nc2ncc3ncn(C)c3n2)c(=O)c2ccc(C(F)(F)F)cc12` [Final Cpd X181] gave an EC50 with TNF above 20 µM. In the experiment with IL-1β, the IC50 is above 20 µM.
`O=C(Cn1nc(C(F)F)c2cc(Br)ccc2c1=O)Nc1ccc2nncn2n1` [X-1000] gave an EC50 with TNF above 20 µM. In addition, in the experiment with IL-1β, the IC50 was determined as 0.122 µM.
On to `O=C(Cn1nc(C2CC2)c2cc(Br)ccc2c1=O)Nc1ccc2nncn2n1` [X-1001], for which the EC50 in the experiment on TNF was above 20 µM. In addition, the IC50 with IL-1β came to 0.224 µM.
The corresponding values for `O=C(Cn1nc(C2CC2)c2cc(Cl)ccc2c1=O)Nc1ccc2nncn2n1` [X-1002] are above 20 µM and 0.453 µM.
In the same order, the values of `CC(C)c1nn(CC(=O)Nc2ccc3nncn3n2)c(=O)c2ccc(C(C)(F)F)cc12` [X-1003] are 9.89 µM and 0.04 µM.
Take `CC(C)c1nn(CC(=O)Nc2ccc3nncn3n2)c(=O)c2ccc(Br)cc12` [X-1004]: in the experiment on TNF, the EC50 was above 20 µM. In addition, the IC50 in the experiment on IL-1β is 0.041 µM.
Take `CC(C)c1nn(CC(=O)Nc2ccc3cnn(C)c3n2)c(=O)c2ccc(Br)cc12` [X-1005]: the EC50 in the experiment on TNF was above 20 µM. The IC50 in the experiment with IL-1β turned out to be 1.47 µM.
The corresponding values for `CC(C)c1nn(CC(=O)Nc2ccc3nccn3n2)c(=O)c2ccc(C(C)(F)F)cc12` [X-1006] are 4.47 µM and 0.128 µM.
The corresponding values for `CC(C)c1nn(CC(=O)Nc2ccc3nncn3n2)c(=O)c2ccc(C3(F)CC3)cc12` [X-1007] are 2.13 µM and 0.015 µM.
